# According to the OPERA property sets (Mansouri et al. 2018):
row,Structure (SMILES),logP
1,CNC(=O)ON=C1CSCS1,0.51
2,CNC(=O)ON=C1CSC(C)(C)S1,1.33
3,CNC(=O)ON=C1SCOC1(C)C,0.82
4,CNC(=O)ON=C1SCOC1C (centres undefined),0.46
5,CNC(=O)ON=C1SCSC1C (centres undefined),0.91
6,CNC(=O)ON=C1SCSC1(C)C,1.31
7,CCCC1OCSC1=NOC(=O)NC (centres undefined),1.52
8,CNC(=O)ON=C1CSCCS1,0.49
9,CNC(=O)ON=C1SCOC1CCOC (centres undefined),0.51
10,CNC(=O)ON=C1SCOC1C(C)C (centres undefined),1.48
11,CNC(=O)ON=C1COCCS1,0
12,CNC(=O)ON=C1COCS1,0.06
13,CNC(=O)ON=C1SC(C)OC1C (centres undefined),0.96
14,CNC(=O)ON=C1SCCSC1(C)C,1.51
